# Experimental data as given in patent US8716478B2, “Boron-containing small molecules” (Anacor Pharmaceuticals, Inc., priority 2010, dated 2014).
# How the values were obtained:
# [1] = tested on: Schistosoma mansoni schistosomula; test: Schistosoma mansoni schistosomula phenotypic screen; conditions: First Set
# Source text: Puerto Rican isolates of S. mansoni using Biomphalaria glabrata snails and golden hamsters as intermediate and definitive hosts, respectively, were maintained and handled in the University of California-San Francisco Sandler Center for Tropical Medicine. Patent B. glabrata snails (6-8 weeks after exposure to 5-10 infectious miracidia) were induced to shed infective larvae (cercariae) under light stimulus into the surrounding water. Cercariae were washed in rounds of ice-cold water and concentrated through and over sieves of varying pore sizes. They were then mechanically sheared (separation of heads from tails) as described in Colley D G, et al. Exp Parasitol 1974, 35:44-51, in ice-cold Incomplete Medium 169 (as described in Basch P F. J Parasitol 1981, 67:179-185, minus FBS and antibiotics) by passing 15 times through a double headed 22-gauge syringe needle connected to two 10 mL syringes. The resulting cercarial heads (schistosomula) were separated from their tails by swirling in a petri dish. Concentrated schistosomula were added to a sterile 1.5 mL centrifuge tube and allowed to settle over ice. Schistosomula were transferred to a sterile environment and washed 4 times in Incomplete Medium 169 prior to plating.
# Two sets of screening were performed. In the first set, compounds were screened against schistosomula and observations were made at 24 hours, 2 days, 3 days, 4 days, and 6 days. In the second set, compounds were screened against schistosomula with observations at 24 hours, 2 days, 3 days, and 4 days and adult worms at 7 hours, 24 hours, 4 days, and 6 days.
# Plates contain 200 schistosomula/well in […] complete Basch medium and were maintained at 37° C. in a 5% CO2 atmosphere. All compounds were tested in duplicate with at least two experimental replicates. Compounds and control compounds were added to the plates using the Biomek FXp using 96-well disposable tips. Final concentration of DMSO in each well was 0.5%.
# A semi-quantitative and controlled nomenclature for phenotypes that can arise as a result of compound insult to both schistosomula and adults was utilized (Abdulla M H, et al., PLoS Negl Trop Dis 2009, 3:e478). Phenotypes were recorded by visual inspection and on a flexible time basis but at least at 24 h and 4 day time-points in the case of large scale screening. […] To help eliminate bias, two screen analysts scored phenotypes ‘blind’ both to knowledge of the contents of each screening plate and the phenotypes scored by his/her colleague. Upon completing their individual assessments, each analyst's ‘hit sheet’ was then compared to derive a ‘consensus hit sheet’. Discrepancies in analysts' hit sheets were re-evaluated under the microscope to eventually make a consensus hit call.
# Hyper-coiled and coiled represent a verbal description of the visual phenotype as compared to the DMSO control. The + and ++ and +++ means more of the phenotype which preceded it. The − means less of the phenotype which preceded it. Results
# [2] = tested on: TNF-α in peripheral blood mononuclear cells (PBMCs); test: TNF-α inhibition in LPS-stimulated peripheral blood mononuclear cells; type: cell-based; conditions: PBMC; PBMCs, LPS 1 μg/mL for 24 h; read-out: Proinflammatory TNF-α IC50
# Protocol: Peripheral blood mononuclear cells (PBMCs) pooled from 10-20 donors were obtained from a local blood bank, ficoll gradient purified, and stored frozen in liquid nitrogen. Cells were thawed and seeded into 96-well plates at 5×10^5 cells/well in RPMI 1640 with 10% heat-inactivated fetal calf serum (MediaTech, Inc, Hearndon, Va., USA), Test articles were evaluated at the indicated concentrations in 150 μL media containing <2% DMSO, final, with stimulant and PBMCs. Cells were stimulated with lipopolysaccharide (LPS, phenol-extract from E. coli, Sigma-Aldrich, St. Louis, Mo.) at 1 μg/mL. Stimulation was with LPS for 24 h to measure TNF-α. Cytokines in supernatants were analyzed with a FACSArray flow cytometer (BD Biosciences, San Jose, Calif., USA) using the BD Cytometric Bead Array (CBA) Flex Set (BD Biosciences). IC50 values were calculated using the four parameter logistic equation.
# [3] = tested on: TNF-α; test: In vivo TNF-α release in LPS treated mice; design: species or system Swiss Webster mice
# Protocol: In vivo TNF-α release was measured in Swiss Webster mice, 10/group. Animals were dosed via oral gavage with drug 1% CMC suspension. Thirty minutes later LPS, 1.5 mg/kg was administered by intraperitoneal injection. Ninety minutes later animals were sacrificed, blood was collected by exsangination and serum prepared for analysis. TNF-α concentration was assessed by ELISA, non-drug treated animals had TNF-α levels 1000-3000 pg/mL. 6-(1-Hydroxy-1,3-dihydrobenzo[c][1,2]oxaborol-5-yloxy)-2-(2-isopropoxyethoxy)nicotinonitrile (D140) and 6-(1-hydroxy-1,3-dihydrobenzo[c][1,2]oxaborol-5-yloxy)-2-(4-oxopentyloxy)nicotinonitrile (D141) are disclosed in U.S. patent application Ser. No. 12/399,015, filed Mar. 5, 2009.
smiles,measurement,setting,value
"CC(C)OC(=O)c1ccc(Oc2ccc3c(c2)COB3O)nc1 [Isopropyl 6-(1-hydroxy-1,3-dihydrobenzo[c][1,2]oxaborol-5-yloxy)nicotinate]","schistosomula phenotype, 24 h",[1],O+
"N#Cc1cc(Cl)c(Oc2ccc3c(c2)COB3O)nc1OCCCC1(O)CC1 [Compound D233, 5-Chloro-6-(1-hydroxy-1,3-dihydrobenzo[c][1,2]oxaborol-5-yloxy)-2-(3-(1-hydroxycyclopropyl)propoxy)nicotinonitrile]",IC50,[2],13 nM
"CC(C)OCCOc1nc(Oc2ccc3c(c2)C(C)OB3O)c(Cl)cc1C#N (centres unmarked) [Compound D252, 5-Chloro-6-(1-hydroxy-3-methyl-1,3-dihydrobenzo[c][1,2]oxaborol-5-yloxy)-2-(2-isopropoxyethoxy)nicotinonitrile]",IC50,[2],160 nM
"N#Cc1ccc(Oc2ccc3c(c2)COB3O)nc1NCCO [6-(1-hydroxy-1,3-dihydro-benzo[c][1,2]oxaborol-5-yloxy)-2-(2-hydroxy-ethylamino)-nicotinonitrile]","schistosomula phenotype, 24 h",[1],O−
same,"schistosomula phenotype, day 6",[1],O+ R
C[C@]12C=CC(=O)C=C1CC[C@@H]1[C@@H]2[C@@H](O)C[C@@]2(C)[C@H]1CC[C@]2(O)C(=O)CO [Prednisolone],% Inhibition of TNFa Blood Levels in LPS Treated Mice,[3]; Oral Dose 0.01 mg/kg,16%
same,% Inhibition of TNFa Blood Levels in LPS Treated Mice,[3]; Oral Dose 0.1 mg/kg,54.3%
same,% Inhibition of TNFa Blood Levels in LPS Treated Mice,[3]; Oral Dose 3 mg/kg,81.6%
same,% Inhibition of TNFa Blood Levels in LPS Treated Mice,[3]; Oral Dose 10 mg/kg,84.5%
same,% Inhibition of TNFa Blood Levels in LPS Treated Mice,[3]; Oral Dose 100 mg/kg,85.9%
"CN(CCO)c1nc(Oc2ccc3c(c2)COB3O)ccc1C#N [6-(1-Hydroxy-1,3-dihydro-benzo[c][1,2]oxaborol-5-yloxy)-2-[(2-hydroxy-ethyl)-methyl-amino]-nicotinonitrile]","schistosomula phenotype, 24 h",[1],O−
same,"schistosomula phenotype, day 3",[1]; day 3,O−
same,"schistosomula phenotype, day 6",[1],R O
"COCCN(C)c1nc(Oc2ccc3c(c2)COB3O)ccc1C#N [6-(1-hydroxy-1,3-dihydro-benzo[c][1,2]oxaborol-5-yloxy)-2-[(2-methoxy-ethyl)-methyl-amino]-nicotinonitrile]","schistosomula phenotype, 24 h",[1],O+
"N#Cc1ccc(Oc2ccc3c(c2)COB3O)nc1OCC(F)(F)F [6-(1-Hydroxy-1,3-dihydro-benzo[c][1,2]oxaborol-5-yloxy)-2-(2,2,2-trifluoro-ethoxy)-nicotinonitrile]","schistosomula phenotype, 24 h",[1],O (overactive)
COc1ccc(C2CNC(=O)C2)cc1OC1CCCC1 (centres unmarked) [Rolipram],% Inhibition of TNFa Blood Levels in LPS Treated Mice,[3]; Oral Dose 10 mg/kg,8.6%
same,% Inhibition of TNFa Blood Levels in LPS Treated Mice,[3]; Oral Dose 30 mg/kg,62.7%
"CC(=O)OCCOc1nc(Oc2ccc3c(c2)COB3O)ccc1C#N [6-(1-Hydroxy-1,3-dihydro-benzo[c][1,2]oxaborol-5-yloxy)-2-(acetyloxyethoxy)-nicotinonitrile]","schistosomula phenotype, 24 h",[1],O++
"N#Cc1cc(Cl)c(Oc2ccc3c(c2)COB3O)nc1OC1CCOCC1 [Compound D240, 5-Chloro-6-(1-hydroxy-1,3-dihydrobenzo[c][1,2]oxaborol-5-yloxy)-2-(tetrahydro-2H-pyran-4-yloxy)nicotinonitrile]",IC50,[2],3.8 nM
O=C(Nc1c(Cl)cncc1Cl)c1ccc(OC(F)F)c(OCC2CC2)c1 [Roflumilast],% Inhibition of TNFa Blood Levels in LPS Treated Mice,[3]; Oral Dose 0.3 mg/kg,0%
same,% Inhibition of TNFa Blood Levels in LPS Treated Mice,[3]; Oral Dose 1 mg/kg,24.9%
same,% Inhibition of TNFa Blood Levels in LPS Treated Mice,[3]; Oral Dose 3 mg/kg,52.5%
same,% Inhibition of TNFa Blood Levels in LPS Treated Mice,[3]; Oral Dose 10 mg/kg,71.5%
same,% Inhibition of TNFa Blood Levels in LPS Treated Mice,[3]; Oral Dose 30 mg/kg,73.5%
"N#Cc1ccc(Oc2ccc3c(c2)COB3O)nc1N1CCCC1 [6-(1-Hydroxy-1,3-dihydro-benzo[c][1,2]oxaborol-5-yloxy)-2-pyrrolidin-1-yl-nicotinonitrile]","schistosomula phenotype, 24 h",[1],O+
"N#Cc1ccc(Oc2ccc3c(c2)COB3O)nc1OCC(F)F [2-(2,2-Difluoro-ethoxy)-6-(1-hydroxy-1,3-dihydro-benzo[c][1,2]oxaborol-5-yloxy)-nicotinonitrile]","schistosomula phenotype, 24 h",[1],O+
"CCCOC(=O)c1ccc(Oc2ccc3c(c2)COB3O)nc1 [n-Propyl 6-(1-hydroxy-1,3-dihydrobenzo[c][1,2]oxaborol-5-yloxy)nicotinate]","schistosomula phenotype, 24 h",[1],O+
"CCOC(=O)c1ccc(Oc2ccc3c(c2)COB3O)c(Oc2cc(C#N)ccn2)c1 [5-[4-Ethoxycarbonyl-2-(4-cyanopyridin-2-yloxy)phenoxy]-1,3-dihydro-1-hydroxy-2,1-benzoxaborole]","schistosomula phenotype, 24 h",[1],O+
"CC(C)OC(=O)c1ccc(Oc2ccc3c(c2)COB3O)c(F)c1 [5-(2-Fluoro-4-isopropyloxycarbonylphenoxy)-1-hydroxy-2,1-benzoxaborole]","schistosomula phenotype, day 6",[1],"O−, R"
"CCCOc1nc(Oc2ccc3c(c2)COB3O)ccc1C#N [6-(1-Hydroxy-1,3-dihydro-benzo[c][1,2]oxaborol-5-yloxy)-2-propoxy-nicotinonitrile]","schistosomula phenotype, 24 h",[1],O+
"CC(=O)NCc1ccc(Oc2ccc3c(c2)COB3O)cc1 [N-[4-(1-Hydroxy-1,3-dihydro-benzo[c][1,2]oxaborol-5-yloxy)-benzyl]-acetamide]","schistosomula phenotype, day 4",[1]; day 4,D (dead)
"N#Cc1ccc(Oc2ccc3c(c2)COB3O)c(OCC2CC2)c1 [3-(Cyclopropylmethoxy)-4-(1-hydroxy-1,3-dihydrobenzo[c][1,2]oxaborol-5-yloxy)benzonitrile]","schistosomula phenotype, 24 h",[1],O+
same,"schistosomula phenotype, day 6",[1],partial D
"CCOC(=O)c1ccc(Oc2ccc3c(c2)COB3O)nc1OCC [Ethyl 2-ethoxy-6-(1-hydroxy-1,3-dihydrobenzo[c][1,2]oxaborol-5-yloxy)nicotinate]","schistosomula phenotype, 24 h",[1],O+
"CCC(=O)CCCOc1nc(Oc2ccc3c(c2)COB3O)c(Cl)cc1C#N [Compound D234, 5-chloro-6-(1-hydroxy-1,3-dihydrobenzo[c][1,2]oxaborol-5-yloxy)-2-(4-oxohexyloxy)nicotinonitrile]",IC50,[2],2.1 nM
"CCOC(=O)c1cnc(Oc2ccc3c(c2)COB3O)c(Cl)c1 [Ethyl 5-chloro-6-(1-hydroxy-1,3-dihydrobenzo[c][1,2]oxaborol-5-yloxy)nicotinate]","schistosomula phenotype, 24 h",[1],O++
"CC(C)(C)Nc1nc(Oc2ccc3c(c2)COB3O)ccc1C#N [2-tert-butylamino-6-(1-hydroxy-1,3-dihydro-benzo[c][1,2]oxaborol-5-yloxy)-nicotinonitrile]","schistosomula phenotype, 24 h",[1],O (overactive)
"COCCNc1nc(Oc2ccc3c(c2)COB3O)ccc1C#N [6-(1-Hydroxy-1,3-dihydro-benzo[c][1,2]oxaborol-5-yloxy)-2-(2-methoxy-ethylamino)-nicotinonitrile]","schistosomula phenotype, 24 h",[1],O−
"CC(C)Oc1nc(Oc2ccc3c(c2)COB3O)ccc1C#N [6-(1-Hydroxy-1,3-dihydro-benzo[c][1,2]oxaborol-5-yloxy)-2-isopropoxy-nicotinonitrile]","schistosomula phenotype, 24 h",[1],O+
"COCCNc1ccc(C#N)c(Oc2ccc3c(c2)COB3O)n1 [2-(1-Hydroxy-1,3-dihydro-benzo[c][1,2]oxaborol-5-yloxy)-6-(2-methoxy-ethylamino)-nicotinonitrile]","schistosomula phenotype, 24 h",[1],O+
"CCOc1nc(Oc2ccc3c(c2)COB3O)ccc1C#N [2-Ethoxy-6-(1-hydroxy-1,3-dihydro-benzo[c][1,2]oxaborol-5-yloxy)-nicotinonitrile]","schistosomula phenotype, 24 h",[1],O++
